This note sets out measurements from patent publication US12473304B2, “Heterocyclic PAD4 inhibitors” (BRISTOL-MYERS SQUIBB COMPANY, priority 2020, dated 2025).

A word on the IC50: it is the point on the concentration scale where inhibition reaches its midpoint.

SMILES strings stand for the structures.

Chain of human PAD4 (hPAD4) (Q9UM07 whole entry): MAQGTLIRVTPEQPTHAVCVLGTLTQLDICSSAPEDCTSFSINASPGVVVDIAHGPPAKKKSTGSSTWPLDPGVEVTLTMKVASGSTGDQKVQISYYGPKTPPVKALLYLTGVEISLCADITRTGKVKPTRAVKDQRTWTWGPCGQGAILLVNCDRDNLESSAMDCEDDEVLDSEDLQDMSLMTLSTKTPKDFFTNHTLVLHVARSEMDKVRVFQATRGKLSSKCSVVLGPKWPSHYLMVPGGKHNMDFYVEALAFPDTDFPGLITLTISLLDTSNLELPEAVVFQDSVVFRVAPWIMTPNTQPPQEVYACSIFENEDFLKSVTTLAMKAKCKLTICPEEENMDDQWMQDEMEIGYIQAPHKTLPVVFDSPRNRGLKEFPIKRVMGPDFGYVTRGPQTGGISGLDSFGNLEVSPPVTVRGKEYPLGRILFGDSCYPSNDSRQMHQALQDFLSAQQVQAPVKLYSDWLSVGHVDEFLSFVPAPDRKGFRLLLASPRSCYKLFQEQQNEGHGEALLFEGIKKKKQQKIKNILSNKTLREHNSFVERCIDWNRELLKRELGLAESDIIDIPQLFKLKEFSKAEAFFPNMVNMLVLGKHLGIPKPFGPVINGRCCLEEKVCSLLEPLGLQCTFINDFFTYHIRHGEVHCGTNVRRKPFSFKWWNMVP

For the assay, the target named is human PAD4 (hPAD4) (Homo sapiens (Human), UniProt Q9UM07). Description: RFMS Human PAD4 Functional Assay 1. Format: biochemical. The conditions noted are these: RFMS assay 1; 5 nM hPAD4, 250 μM BAEE substrate, 50 μM calcium, 37° C. The gist of the method:
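Citrullination product read by RapidFire triple-quad MRM against a modified-citrulline internal standard, after TCA stop and 30 min phenyl glyoxal step at 37 °C. Reaction: 250 μM BAEE, 5 nM human PAD4, 90 min at 37 °C, pH 7.5 HEPES buffer with 50 μM calcium and 5 μM TPEN, following 30 min compound–enzyme preincubation (max 50 μM).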
With `COCC(=O)N1CC(c2cccc3cc(-c4nn5cc(C(=O)N6C[C@H](N)C[C@@H](F)C6)cc(OC)c5c4C)n(CC4CC4)c23)C1` [Example 527, 1-(3-(2-(6-((3R,5R)-3-Amino-5-fluoropiperidine-1-carbonyl)-4-methoxy-3-methylpyrazolo[1,5-a]pyridin-2-yl)-1-(cyclopropylmethyl)-1H-indol-7-yl)azetidin-1-yl)-2-methoxyethan-1-one], the concentration for half-maximal inhibition (IC50) amounted to 50 nM.

In the case of `COCC(=O)N1CC(c2cccc3cc(-c4nn5cc(C(=O)N6CCC[C@@H](N)C6)cc(OC)c5c4C)n(CC4CC4)c23)C1` [Example 528, (R)-1-(3-(2-(6-(3-Aminopiperidine-1-carbonyl)-4-methoxy-3-methylpyrazolo[1,5-a]pyridin-2-yl)-1-(cyclopropylmethyl)-1H-indol-7-yl)azetidin-1-yl)-2-methoxyethan-1-one], the IC50 amounted to 15000 nM. Regarding `COCC(=O)N1CC(c2cccc3cc(-c4nn5cc(C(=O)N6CCC[C@@H](N)C6)cc(OC)c5c4C)n(CC4CC4)c23)C1` [Example 529, (R)-1-(3-(2-(6-(3-Aminopiperidine-1-carbonyl)-4-methoxy-3-methylpyrazolo[1,5-a]pyridin-2-yl)-1-(cyclopropylmethyl)-1H-indol-7-yl)azetidin-1-yl)-2-methoxyethan-1-one], the IC50 stood at 1530 nM. Next, `Cc1c(-c2cc3cccc(C4CN(C(=O)[C@H]5CC[C@H](O)CC5)C4)c3n2CC2CC2)nn2cc(C(=O)N3CCC[C@@H](N)C3)ccc12` [Example 530, ((R)-3-Aminopiperidin-1-yl)(2-(1-(cyclopropylmethyl)-7-(1-((1r,4r)-4-hydroxycyclohexane-1-carbonyl)azetidin-3-yl)-1H-indol-2-yl)-3-methylpyrazolo[1,5-a]pyridin-6-yl)methanone]: 30 nM; `Cc1c(-c2cc3cccc(C4CN(C(=O)[C@@H]5CCC[C@H](O)C5)C4)c3n2CC2CC2)nn2cc(C(=O)N3C[C@H](N)C[C@@H](F)C3)ccc12` [Example 531, ((3R,5R)-3-Amino-5-fluoropiperidin-1-yl)(2-(1-(cyclopropylmethyl)-7-(1-((1R,3S)-3-hydroxycyclohexane-1-carbonyl)azetidin-3-yl)-1H-indol-2-yl)-3-methylpyrazolo[1,5-a]pyridin-6-yl)methanone]: 580 nM. With `Cc1c(-c2cc3cccc(C4CN(C(=O)[C@@H]5CCC[C@H](O)C5)C4)c3n2CC2CC2)nn2cc(C(=O)N3CCC[C@@H](N)C3)ccc12` [Example 532, ((R)-3-Aminopiperidin-1-yl)(2-(1-(cyclopropylmethyl)-7-(1-((1R,3S)-3-hydroxycyclohexane-1-carbonyl)azetidin-3-yl)-1H-indol-2-yl)-3-methylpyrazolo[1,5-a]pyridin-6-yl)methanone] the figure was 1010 nM.

Take `Cc1c(-c2cc3cccc(C4CN(C(=O)[C@H]5CCC[C@@H](O)C5)C4)c3n2CC2CC2)nn2cc(C(=O)N3C[C@H](N)C[C@@H](F)C3)ccc12` [Example 533, ((3R,5R)-3-Amino-5-fluoropiperidin-1-yl)(2-(1-(cyclopropylmethyl)-7-(1-((1S,3R)-3-hydroxycyclohexane-1-carbonyl)azetidin-3-yl)-1H-indol-2-yl)-3-methylpyrazolo[1,5-a]pyridin-6-yl)methanone]: the 50% inhibitory concentration (IC50) came to 520 nM. `Cc1c(-c2cc3cccc(C4CN(C(=O)[C@H]5CCC[C@@H](O)C5)C4)c3n2CC2CC2)nn2cc(C(=O)N3CCC[C@@H](N)C3)ccc12` [Example 534, ((R)-3-Aminopiperidin-1-yl)(2-(1-(cyclopropylmethyl)-7-(1-((1S,3R)-3-hydroxycyclohexane-1-carbonyl)azetidin-3-yl)-1H-indol-2-yl)-3-methylpyrazolo[1,5-a]pyridin-6-yl)methanone]: the IC50 was 440 nM. Turning to `COC(C)(C)C(=O)N1CC(c2cccc3cc(-c4nn5cc(C(=O)N6CCC[C@@H](N)C6)ccc5c4C)n(CC4CC4)c23)C1` [Example 536, (R)-1-(3-(2-(6-(3-Aminopiperidine-1-carbonyl)-3-methylpyrazolo[1,5-a]pyridin-2-yl)-1-(cyclopropylmethyl)-1H-indol-7-yl)azetidin-1-yl)-2-methoxy-2-methylpropan-1-one], the IC50 came to 2520 nM. On to `Cc1c(-c2cc3cccc(C4CN(C(=O)[C@H]5CC[C@H](O)CC5)C4)c3n2CC2CC2)nn2cc(C(=O)N3C[C@H](N)C[C@@H](F)C3)ccc12` [Example 537, ((3R,5R)-3-Amino-5-fluoropiperidin-1-yl)(2-(1-(cyclopropylmethyl)-7-(1-((1r,4r)-4-hydroxycyclohexane-1-carbonyl)azetidin-3-yl)-1H-indol-2-yl)-3-methylpyrazolo[1,5-a]pyridin-6-yl)methanone], for which the IC50 amounted to 70 nM. Next, `Cc1c(-c2cc3cccc(C4CN(C(=O)[C@H]5CC[C@@H](O)CC5)C4)c3n2CC2CC2)nn2cc(C(=O)N3C[C@H](N)C[C@@H](F)C3)ccc12` [Example 538, ((3R,5R)-3-Amino-5-fluoropiperidin-1-yl)(2-(1-(cyclopropylmethyl)-7-(1-((1s,4s)-4-hydroxycyclohexane-1-carbonyl)azetidin-3-yl)-1H-indol-2-yl)-3-methylpyrazolo[1,5-a]pyridin-6-yl)methanone]: 40 nM; `Cc1c(-c2cc3cccc(C4CN(C(=O)[C@H]5CC[C@@H](O)CC5)C4)c3n2CC2CC2)nn2cc(C(=O)N3CCC[C@@H](N)C3)ccc12` [Example 539, ((R)-3-Aminopiperidin-1-yl)(2-(1-(cyclopropylmethyl)-7-(1-((1s,4s)-4-hydroxycyclohexane-1-carbonyl)azetidin-3-yl)-1H-indol-2-yl)-3-methylpyrazolo[1,5-a]pyridin-6-yl)methanone]: 130 nM; `CO[C@H](C)C(=O)N1CC(c2cccc3cc(-c4nn5cc(C(=O)N6C[C@H](N)C[C@@H](F)C6)ccc5c4C)n(CC4CC4)c23)C1` [Example 540, (R)-1-(3-(2-(6-((3R,5R)-3-Amino-5-fluoropiperidine-1-carbonyl)-3-methylpyrazolo[1,5-a]pyridin-2-yl)-1-(cyclopropylmethyl)-1H-indol-7-yl)azetidin-1-yl)-2-methoxypropan-1-one]: 1100 nM. As for `CO[C@H](C)C(=O)N1CC(c2cccc3cc(-c4nn5cc(C(=O)N6CCC[C@@H](N)C6)ccc5c4C)n(CC4CC4)c23)C1` [Example 541, (R)-1-(3-(2-(6-((R)-3-Aminopiperidine-1-carbonyl)-3-methylpyrazolo[1,5-a]pyridin-2-yl)-1-(cyclopropylmethyl)-1H-indol-7-yl)azetidin-1-yl)-2-methoxypropan-1-one], the 50% inhibitory concentration (IC50) was found to be 2530 nM. As for `CO[C@@H](C)C(=O)N1CC(c2cccc3cc(-c4nn5cc(C(=O)N6C[C@H](N)C[C@@H](F)C6)ccc5c4C)n(CC4CC4)c23)C1` [Example 542, (S)-1-(3-(2-(6-((3R,5R)-3-Amino-5-fluoropiperidine-1-carbonyl)-3-methylpyrazolo[1,5-a]pyridin-2-yl)-1-(cyclopropylmethyl)-1H-indol-7-yl)azetidin-1-yl)-2-methoxypropan-1-one], the IC50 turned out to be 580 nM. Regarding `CO[C@@H](C)C(=O)N1CC(c2cccc3cc(-c4nn5cc(C(=O)N6CCC[C@@H](N)C6)ccc5c4C)n(CC4CC4)c23)C1` [Example 543, (S)-1-(3-(2-(6-((R)-3-aminopiperidine-1-carbonyl)-3-methylpyrazolo[1,5-a]pyridin-2-yl)-1-(cyclopropylmethyl)-1H-indol-7-yl)azetidin-1-yl)-2-methoxypropan-1-one], the IC50 turned out to be 630 nM.

For `COCC(=O)N1CC(c2cccc3cc(-c4nn5cc(C(=O)N6CCC[C@@H](N)C6)ccc5c4C)n(CC4CC4)c23)C1` [Example 546, (R)-1-(3-(2-(6-(3-Aminopiperidine-1-carbonyl)-3-methylpyrazolo[1,5-a]pyridin-2-yl)-1-(cyclopropylmethyl)-1H-indol-7-yl)azetidin-1-yl)-2-methoxyethan-1-one], the IC50 stood at 560 nM. Next, `COCC(=O)N1CC(c2cccc3cc(-c4nn5cc(C(=O)N6C[C@H](N)C[C@@H](F)C6)ccc5c4C)n(CC4CC4)c23)C1` [Example 547, 1-(3-(2-(6-((3R,5R)-3-Amino-5-fluoropiperidine-1-carbonyl)-3-methylpyrazolo[1,5-a]pyridin-2-yl)-1-(cyclopropylmethyl)-1H-indol-7-yl)azetidin-1-yl)-2-methoxyethan-1-one]: 490 nM.

Turning to `CC(=O)N1CC(c2cccc3cc(-c4nn5cc(C(=O)N6C[C@H](N)C[C@@H](F)C6)ccc5c4C)n(CC4CC4)c23)C1` [Example 548, 1-(3-(2-(6-((3R,5R)-3-Amino-5-fluoropiperidine-1-carbonyl)-3-methylpyrazolo[1,5-a]pyridin-2-yl)-1-(cyclopropylmethyl)-1H-indol-7-yl)azetidin-1-yl)ethan-1-one], the half-inhibitory concentration (IC50) is 170 nM. Next, `CC(=O)N1CC(c2cccc3cc(-c4nn5cc(C(=O)N6CC7CCC6[C@@H]7N)ccc5c4C)n(CC4CC4)c23)C1` (stereo partly drawn) [Example 549, 1-(3-(2-(6-((7R)-7-Amino-2-azabicyclo[2.2.1]heptane-2-carbonyl)-3-methylpyrazolo[1,5-a]pyridin-2-yl)-1-(cyclopropylmethyl)-1H-indol-7-yl)azetidin-1-yl)ethan-1-one]: 10 nM. With `COc1cc(C(=O)N2C[C@H](N)C[C@@H](F)C2)cn2nc(-c3cc4cccc(OC[C@H]5CCC(=O)N5)c4n3CC3CC3)c(C)c12` [Example 550, (R)-5-(((2-(6-((3R,5R)-3-amino-5-fluoropiperidine-1-carbonyl)-4-methoxy-3-methylpyrazolo[1,5-a]pyridin-2-yl)-1-(cyclopropylmethyl)-1H-indol-7-yl)oxy)methyl)pyrrolidin-2-one] the figure was 50 nM; with `COc1cc(C(=O)N2CCC[C@@H](N)C2)cn2nc(-c3cc4cccc(OCCn5cncn5)c4n3CC3CC3)c(C)c12` [Example 555, (R)-(2-(7-(2-(1H-1,2,4-Triazol-1-yl)ethoxy)-1-(cyclopropylmethyl)-1H-indol-2-yl)-4-methoxy-3-methylpyrazolo[1,5-a]pyridin-6-yl)(3-aminopiperidin-1-yl)methanone], 30 nM.
